# According to PubChem BioAssay (NCI):
#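 Growth conditions: 96-well plates. Treatment: test compound, 48 hours, 5 concentrations. Analysis: linear interpolation between bracketing concentrations; unreached endpoints set to highest concentration. GI50 is the concentration that inhibits growth by half. TGI: concentration producing complete growth inhibition.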
# How the values were obtained:
# Test in all cases: NCI anticancer screen, dose series, 48 h
# CAKI-1 renal = system: CAKI-1 renal
# OVCAR-5 ovarian = system: OVCAR-5 ovarian
# TK-10 renal = system: TK-10 renal
# SF-268 CNS = system: SF-268 CNS
# MOLT-4 leukemia = system: MOLT-4 leukemia
# NCI-H226 lung = system: NCI-H226 lung
# OVCAR-8 ovarian = system: OVCAR-8 ovarian
# HCC-2998 colon = system: HCC-2998 colon
# OVCAR-4 ovarian = system: OVCAR-4 ovarian
# SR leukemia = system: SR leukemia
Structure (SMILES),TGI (CAKI-1 renal),TGI (OVCAR-5 ovarian),TGI (TK-10 renal),TGI (SF-268 CNS),TGI (MOLT-4 leukemia),TGI (NCI-H226 lung),TGI (OVCAR-8 ovarian),TGI (HCC-2998 colon),TGI (OVCAR-4 ovarian),TGI (SR leukemia),GI50 (SF-268 CNS),GI50 (NCI-H226 lung),GI50 (CAKI-1 renal),GI50 (OVCAR-5 ovarian),GI50 (TK-10 renal),GI50 (MOLT-4 leukemia),GI50 (OVCAR-8 ovarian),GI50 (HCC-2998 colon),GI50 (OVCAR-4 ovarian),GI50 (SR leukemia)
CN1CCN(CCSC2Cc3cc(Cl)ccc3Sc3ccccc32)CC1 (configuration not stated),17.2 µM,18.2 µM,9.67 µM,25.6 µM,7.74 µM,31.4 µM,19.4 µM,15.3 µM,18.2 µM,19.9 µM,,,,,,,,,,
NC(N)=N/N=C(/c1nc2ccc([N+](=O)[O-])cc2[nH]c1=O)C(O)c1ccco1 (configuration not stated),> 100 µM,> 100 µM,> 100 µM,> 100 µM,> 100 µM,> 100 µM,> 100 µM,> 100 µM,> 100 µM,> 100 µM,,,,,,,,,,
CCCCCCNC(=O)C1=C(C)NC(C)=C(C(=O)NCCCCCC)C1,> 100 µM,> 100 µM,> 100 µM,> 100 µM,> 100 µM,> 100 µM,> 100 µM,> 100 µM,> 100 µM,> 100 µM,,,,,,,,,,
Cc1nn(C(=O)c2ccccc2O)c2c1C(c1ccccc1)SC(N)=N2 (configuration not stated),> 10 µM,> 10 µM,> 10 µM,> 10 µM,> 10 µM,7.38 µM,> 10 µM,> 10 µM,> 10 µM,6.49 µM,,,,,,,,,,
COc1cc(-c2cc(=O)c3cc4c(cc3[nH]2)OCO4)cc(OC)c1OC,> 100 µM,,> 100 µM,> 100 µM,> 100 µM,> 100 µM,> 100 µM,> 100 µM,> 100 µM,> 100 µM,32.7 µM,> 100 µM,,,,,,,,
COc1cc(/C=C/c2cc(C(F)(F)F)[nH]c(=O)n2)ccc1OCc1ccccc1F,42.3 µM,30.9 µM,39.1 µM,> 100 µM,38 µM,43.2 µM,48.8 µM,30.1 µM,67.9 µM,43.3 µM,17.9 µM,11.9 µM,11.3 µM,16.5 µM,18 µM,7.27 µM,8.85 µM,15.5 µM,7.6 µM,4.17 µM
CC1=CSC2=NC(c3ccc(Cl)c(Cl)c3)=CC(c3ccc(Cl)cc3)N12 (configuration not stated),> 100 µM,> 100 µM,> 100 µM,> 100 µM,> 100 µM,> 100 µM,> 100 µM,> 100 µM,> 100 µM,> 100 µM,> 100 µM,> 100 µM,> 100 µM,> 100 µM,> 100 µM,> 100 µM,> 100 µM,> 100 µM,> 100 µM,> 61.3 µM
c1cnc2c(c1)-n1cccc1C1(CCSCC1)NN2,> 100 µM,> 100 µM,> 100 µM,> 100 µM,> 100 µM,> 100 µM,> 100 µM,> 100 µM,> 100 µM,> 100 µM,,,,,,,,,,
CCN(CC)CCCCC1CCN(CC(=O)N2CC(C)C(=O)Nc3ccccc32)CC1 (configuration not stated),> 100 µM,> 100 µM,,> 100 µM,> 100 µM,> 100 µM,,> 100 µM,> 100 µM,> 100 µM,,,,,,,,,,
CC1=C2C(O)C(C(C)CO)C(O)CC2(C)C(O)CC1 (configuration not stated),> 100 µM,> 100 µM,> 100 µM,> 100 µM,> 100 µM,> 100 µM,> 100 µM,> 100 µM,> 100 µM,> 100 µM,,,,,,,,,,
S=C(Nc1ccc(-c2nc3ccccc3[nH]2)cc1)NC1CCCCC1,55.2 µM,,80.6 µM,,> 100 µM,48.9 µM,83.7 µM,32.4 µM,,52.5 µM,33.1 µM,19.6 µM,,42.4 µM,22.8 µM,28.3 µM,26.3 µM,16.4 µM,,10.9 µM
CCCCNc1nc(NC(C)(C)C)nc(NC(C)(C)C)n1,> 100 µM,> 100 µM,> 100 µM,> 100 µM,> 100 µM,> 100 µM,> 100 µM,> 100 µM,> 100 µM,12.9 µM,48.4 µM,6.44 µM,5.55 µM,15.2 µM,52.6 µM,5.69 µM,4.74 µM,8.05 µM,3.03 µM,2.8 µM
CCOC(=O)[C@@H](C)C[C@H](Cc1ccccc1)NC(=O)c1csc([C@@H](C[C@H](C(C)C)N(C)C(=O)[C@@H](NC(=O)[C@H]2C[C@H](O[Si](C)(C)C(C)(C)C)CCN2C)C(C)C)OC(C)=O)n1,> 8.33 µM,> 7.43 µM,> 8.33 µM,> 8.33 µM,> 8.33 µM,> 4.18 µM,> 8.33 µM,0.69 µM,> 8.33 µM,1.82 µM,0.441 µM,0.493 µM,0.351 µM,0.296 µM,0.946 µM,0.354 µM,0.744 µM,0.182 µM,0.674 µM,0.0387 µM
COc1cc2c(cc1C)NC(=O)/C2=C\c1cc(OC)c(OC)c(OC)c1,> 100 µM,> 100 µM,> 100 µM,> 100 µM,38.8 µM,> 100 µM,> 100 µM,> 100 µM,> 100 µM,47.4 µM,> 100 µM,> 100 µM,> 100 µM,32.2 µM,93.7 µM,12.5 µM,> 100 µM,> 100 µM,> 100 µM,11.5 µM
O=[N+]([O-])c1c(/C=N/Nc2ccccc2)oc(-c2ccc3c(c2)OCO3)c1-c1ccc2c(c1)OCO2,> 100 µM,> 100 µM,> 100 µM,> 100 µM,,> 100 µM,> 100 µM,34.3 µM,> 100 µM,29.8 µM,,,,,,,,,,
O=C(Nc1ccccc1C(F)(F)F)c1cccc(NC2=C(Cl)C(=O)N(Cc3ccccc3)C2=O)c1,> 67.2 µM,> 100 µM,37.2 µM,> 25.3 µM,30.8 µM,52.9 µM,> 72.1 µM,50.8 µM,> 100 µM,4.35 µM,9.32 µM,15.4 µM,21.1 µM,20 µM,6.85 µM,4.29 µM,42.3 µM,21.5 µM,45.1 µM,0.447 µM

Structure (SMILES),TGI (CAKI-1 renal),TGI (OVCAR-5 ovarian),TGI (TK-10 renal),TGI (SF-268 CNS),TGI (MOLT-4 leukemia),TGI (NCI-H226 lung),TGI (OVCAR-8 ovarian),TGI (HCC-2998 colon),TGI (OVCAR-4 ovarian),TGI (SR leukemia),GI50 (SF-268 CNS),GI50 (NCI-H226 lung),GI50 (CAKI-1 renal),GI50 (OVCAR-5 ovarian),GI50 (TK-10 renal),GI50 (MOLT-4 leukemia),GI50 (OVCAR-8 ovarian),GI50 (HCC-2998 colon),GI50 (OVCAR-4 ovarian),GI50 (SR leukemia)
CCOc1ccc(/C=C/C(=O)c2ccccc2)cc1,30.7 µM,47.1 µM,34.9 µM,36.9 µM,94.9 µM,75.2 µM,34.6 µM,29.7 µM,60.5 µM,43.5 µM,18.7 µM,24.7 µM,14.1 µM,19.3 µM,17.9 µM,18.6 µM,14.8 µM,15.6 µM,21.5 µM,8.5 µM
CC1(C)C(=O)N(c2ccccc2)C(=O)N1c1nc2ccccc2[nH]1,> 100 µM,> 100 µM,> 100 µM,> 100 µM,> 100 µM,> 100 µM,> 100 µM,> 100 µM,,> 100 µM,,,,,,,,,,
CCCCC#COP(=O)(OCC)OCC,> 100 µM,> 100 µM,> 100 µM,> 100 µM,> 100 µM,> 100 µM,> 100 µM,> 100 µM,> 100 µM,> 100 µM,,,,,,,,,,
COc1cc(OC2OC(C)C(O)C(O)C2O)cc2oc(-c3ccc(O)cc3)c(CC=C(C)C)c(=O)c12 (configuration not stated),40.7 µM,69.2 µM,64.7 µM,32.5 µM,17.7 µM,69.7 µM,> 100 µM,40.8 µM,18.9 µM,22.5 µM,15.4 µM,21.9 µM,14.1 µM,31.4 µM,25 µM,3.45 µM,32.3 µM,16.6 µM,2.06 µM,4.08 µM
c1ccc2c(c1)[I+]c1ccccc1-2,> 50 µM,> 50 µM,> 50 µM,> 50 µM,> 50 µM,> 50 µM,> 50 µM,> 50 µM,> 50 µM,> 50 µM,> 50 µM,> 50 µM,> 50 µM,> 50 µM,> 50 µM,> 50 µM,> 50 µM,> 50 µM,21.6 µM,19.4 µM
O=[N+]([O-])c1ccc2[nH]cc(-c3c4ccsc4cc4[nH]c5ccc([N+](=O)[O-])cc5c34)c2c1,9.94 µM,7.8 µM,18.5 µM,18.5 µM,5.5 µM,3.95 µM,19.7 µM,6.27 µM,9.38 µM,33.3 µM,1.39 µM,0.967 µM,0.758 µM,1.29 µM,2.85 µM,1.27 µM,1.25 µM,1.88 µM,1.8 µM,0.419 µM
C[CH2][Sn]1([CH2]C)[O]C(=O)[O][Sn]([CH2]C)([CH2]C)[O]1,9.72 µM,> 59.5 µM,32.8 µM,36.6 µM,> 100 µM,> 58.4 µM,20.4 µM,> 100 µM,> 100 µM,> 100 µM,18.9 µM,> 43.8 µM,1.44 µM,> 45.8 µM,18.7 µM,41.7 µM,14.2 µM,60 µM,> 100 µM,30.8 µM
Cc1ccc(C(=O)c2oc3ccc4c(C)cc(=O)oc4c3c2C)cc1,> 100 µM,> 100 µM,> 100 µM,98.8 µM,> 100 µM,> 100 µM,> 100 µM,> 100 µM,75.5 µM,> 100 µM,10.4 µM,11.7 µM,5.78 µM,11.2 µM,45.1 µM,63.6 µM,6.08 µM,24 µM,23.6 µM,25.1 µM
COc1ccc2c(c1)C(=O)CC(N)C2 (configuration not stated),> 100 µM,> 100 µM,> 100 µM,> 100 µM,> 100 µM,> 100 µM,> 100 µM,> 100 µM,> 100 µM,> 100 µM,,,,,,,,,,
Nc1nc(-c2cccc([N+](=O)[O-])c2)c(Br)c(=O)[nH]1,> 100 µM,> 100 µM,> 100 µM,> 100 µM,> 100 µM,> 100 µM,> 100 µM,> 100 µM,> 100 µM,> 100 µM,,,,,,,,,,
O=C1c2cc(Br)ccc2-c2c1c1ccc([N+](=O)[O-])cc1c(=O)n2CCCCl,2.73 µM,21.8 µM,> 57.2 µM,35.5 µM,,3.59 µM,17.4 µM,13 µM,77.7 µM,,< 0.0258 µM,0.1 µM,< 0.0285 µM,2.57 µM,13.8 µM,< 0.01 µM,0.293 µM,1.55 µM,11.2 µM,< 0.01 µM
COc1cc(OC)c(/C=C/c2ccc3ccccc3[n+]2C)c(OC)c1,> 49.2 µM,25.2 µM,6.93 µM,7.61 µM,4.77 µM,18.5 µM,6.48 µM,5.6 µM,15.8 µM,2.68 µM,0.501 µM,1.42 µM,8.55 µM,3.09 µM,1.91 µM,1.35 µM,0.507 µM,0.811 µM,0.659 µM,0.35 µM
COc1cc2c(cc1OCc1ccccc1)N=C[C@@H]1C/C(=C/C(=O)NCCCN3C(=O)c4cccc5cccc(c45)C3=O)CN1C2=O,19.7 µM,14.4 µM,3.43 µM,5.01 µM,63.9 µM,> 100 µM,,1.26 µM,> 100 µM,> 100 µM,0.314 µM,2.82 µM,2.14 µM,0.617 µM,0.466 µM,0.0553 µM,1.22 µM,0.142 µM,2.63 µM,> 100 µM
CN(C)c1ccc(/C=C2\Oc3cc(O)ccc3C2=O)cc1,> 100 µM,,> 100 µM,> 100 µM,> 100 µM,> 100 µM,> 100 µM,> 100 µM,> 100 µM,> 100 µM,,,,,,,,,,
C=CCCCCCCCCCCCC1CCC(CC)N1 (configuration not stated),25.4 µM,22.6 µM,32.1 µM,46.6 µM,17 µM,49.1 µM,,8.04 µM,21.3 µM,7.12 µM,,,,,,,,,,
